Measurements reported in patent US10449248B2, “Nutritional composition for improving the mammalian immune system” (N.V. Nutricia, priority 2008, dated 2019).

Tested on: HepG2 cells
Experiment: Glutathione content of HepG2 cells with or without glutathione precursor amino acids
Assay type: cell-based
Settings: in vitro model of normal liver, FIG. 4

| SMILES | effect on the glutathione homeostasis in liver HepG2 cells |
| --- | --- |
| N[C@@H](CS)C(=O)O [cysteine] | positive effect |
| NC(=O)CC[C@H](N)C(=O)O [glutamine] | positive effect |
